The subject of test [1] is Cabbage Looper (Trichoplusia ni) ("CL"), second instar larvae. In words: Bioassay on cabbage looper (CL), 128-well diet tray assay. The class given is in vivo. Particulars: Trichoplusia ni, read-out: CL rating. In outline:
(§1)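 Second-instar larvae on diet in 128-well trays, covered and held at 25° C, 14:10 light-dark, for five to seven days. Percent mortality scored per well and averaged over eight wells; activity reported as a rating category.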

The subject of test [2] is Beet Armyworm (Spodoptera exigua) ("BAW"), second instar larvae. In words: Bioassay on beet armyworm (BAW), 128-well diet tray assay. It counts as in vivo. Particulars: Spodoptera exigua, read-out: BAW rating. In outline: as §1

Turning to `Cc1ccc(C(C)C)c(N2C(=O)CS/C2=N\C(=O)Nc2ccc(-c3nnc(-c4ccc(OC(F)(F)F)cc4)s3)cc2F)c1` [Compound J499, (Z)-1-(2-Fluoro-4-(5-(4-(trifluoromethoxy)phenyl)-1,3,4-thiadiazol-2-yl)phenyl)-3-(3-(2-isopropyl-5-methylphenyl)-4-oxothiazolidin-2-ylidene)urea], the pest or weed control at 50 µg/cm2 in test [1] and in test [2] was 50 to 100% throughout.
In the case of `Cc1ccc(COCC(F)(F)F)c(N2C(=O)CS/C2=N\C(=O)Nc2ccc(-c3nnc(-c4ccc(OC(F)(F)F)cc4)s3)cc2F)c1` [Compound J500, (Z)-1-(2-Fluoro-4-(5-(4-(trifluoromethoxy)phenyl)-1,3,4-thiadiazol-2-yl)phenyl)-3-(3-(5-methyl-2-((2,2,2-trifluoroethoxy)methyl)phenyl)-4-oxothiazolidin-2-ylidene)urea], the pest or weed control at 50 µg/cm2 in test [1] and in test [2] was 50 to 100% each time.
Consider `COC(C)c1ccc(C)cc1N1C(=O)CS/C1=N\C(=O)Nc1ccc(-c2nnc(-c3ccc(OC(F)(F)F)cc3)s2)cc1F` (stereo not drawn) [Compound J504, (Z)-1-(2-Fluoro-4-(5-(4-(trifluoromethoxy)phenyl)-1,3,4-thiadiazol-2-yl)phenyl)-3-(3-(2-(1-methoxyethyl)-5-methylphenyl)-4-oxothiazolidin-2-ylidene)urea], for which the pest or weed control at 50 µg/cm2 in test [1] was in the range of 50 to 100%; in test [2] it was 0 to 50%.
Regarding `CC(C)c1ccc(N(C)C)cc1N1C(=O)CS/C1=N\C(=O)Nc1ccc(-c2nnc(-c3ccc(OC(F)(F)F)cc3)s2)cc1F` [Compound J506, (Z)-1-(3-(5-(Dimethylamino)-2-isopropylphenyl)-4-oxothiazolidin-2-ylidene)-3-(2-fluoro-4-(5-(4-(trifluoromethoxy)phenyl)-1,3,4-thiadiazol-2-yl)phenyl)urea], the pest or weed control at 50 µg/cm2 in test [1] and in test [2] was 50 to 100% in each case.
With `CC(C)c1cc(F)c(N(C)C)cc1N1C(=O)CS/C1=N\C(=O)Nc1ccc(-c2nnc(-c3ccc(OC(F)(F)F)cc3)s2)cc1F` [Compound J507, (Z)-1-(3-(5-(Dimethylamino)-4-fluoro-2-isopropylphenyl)-4-oxothiazolidin-2-ylidene)-3-(2-fluoro-4-(5-(4-(trifluoromethoxy)phenyl)-1,3,4-thiadiazol-2-yl)phenyl)urea], the pest or weed control at 50 µg/cm2 in test [1] and in test [2] was 50 to 100% throughout.
Regarding `COC(C)c1ccc(C)cc1N1C(=O)CS/C1=N\C(=O)Nc1ccc(-c2cn(-c3ccc(C(F)(F)F)cn3)cn2)cc1C` (stereo not drawn) [Compound J508, (Z)-1-(3-(2-(1-Methoxyethyl)-5-methylphenyl)-4-oxothiazolidin-2-ylidene)-3-(2-methyl-4-(1-(5-(trifluoromethyl)pyridin-2-yl)-1H-imidazol-4-yl)phenyl)urea], the pest or weed control at 50 µg/cm2 in test [1] and in test [2] was 50 to 100% throughout.
On to `Cc1ccc(C(C)C)c(N2C(=O)CS/C2=N\C(=O)Nc2ccc(-c3cn(-c4ccc(C(F)(F)F)cn4)cn3)cc2C)c1` [Compound J509, (Z)-1-(3-(2-Isopropyl-5-methylphenyl)-4-oxothiazolidin-2-ylidene)-3-(2-methyl-4-(1-(5-(trifluoromethyl)pyridin-2-yl)-1H-imidazol-4-yl)phenyl)urea], for which the pest or weed control at 50 µg/cm2 in test [1] and in test [2] was 50 to 100% throughout.
Turning to `Cc1ccc(COCC(F)(F)F)c(N2C(=O)CS/C2=N\C(=O)Nc2ccc(-c3cn(-c4ccc(C(F)(F)F)cn4)cn3)cc2C)c1` [Compound J511, (Z)-1-(3-(5-Methyl-2-((2,2,2-trifluoroethoxy)methyl)phenyl)-4-oxothiazolidin-2-ylidene)-3-(2-methyl-4-(1-(5-(trifluoromethyl)pyridin-2-yl)-1H-imidazol-4-yl)phenyl)urea], the pest or weed control at 50 µg/cm2 in test [1] and in test [2] was 50 to 100% each time.
For `Cc1ccc(OCCC(F)(F)F)c(N2C(=O)CS/C2=N\C(=O)Nc2ccc(-c3cn(-c4ccc(C(F)(F)F)cn4)cn3)cc2C)c1` [Compound J512, (Z)-1-(3-(5-Methyl-2-(3,3,3-trifluoropropoxy)phenyl)-4-oxothiazolidin-2-ylidene)-3-(2-methyl-4-(1-(5-(trifluoromethyl)pyridin-2-yl)-1H-imidazol-4-yl)phenyl)urea], the pest or weed control at 50 µg/cm2 in test [1] and in test [2] was 50 to 100% each time.
`COC(C)c1ccc(C)cc1N1C(=O)CS/C1=N\C(=O)Nc1ccc(-c2cn(-c3ccc(C(F)(F)F)cc3)cn2)cc1` (stereo not drawn) [Compound J513, (Z)-1-(3-(2-(1-Methoxyethyl)-5-methylphenyl)-4-oxothiazolidin-2-ylidene)-3-(4-(1-(4-(trifluoromethyl)phenyl)-1H-imidazol-4-yl)phenyl)urea]: the pest or weed control at 50 µg/cm2 in test [1] and in test [2] was 50 to 100% in each case.
Take `Cc1ccc(C(C)C)c(N2C(=O)CS/C2=N\C(=O)Nc2ccc(-c3cn(-c4ccc(C(F)(F)F)cc4)cn3)cc2)c1` [Compound J514, (Z)-1-(3-(2-Isopropyl-5-methylphenyl)-4-oxothiazolidin-2-ylidene)-3-(4-(1-(4-(trifluoromethyl)phenyl)-1H-imidazol-4-yl)phenyl)urea]: the pest or weed control at 50 µg/cm2 in test [1] and in test [2] was 50 to 100% throughout.
For the molecule `CC(C)c1ccc(N(C)C)cc1N1C(=O)CS/C1=N\C(=O)Nc1ccc(-c2cn(-c3ccc(C(F)(F)F)cc3)cn2)cc1` [Compound J515, (Z)-1-(3-(5-(Dimethylamino)-2-isopropylphenyl)-4-oxothiazolidin-2-ylidene)-3-(4-(1-(4-(trifluoromethyl)phenyl)-1H-imidazol-4-yl)phenyl)urea], the pest or weed control at 50 µg/cm2 in test [1] and in test [2] was 50 to 100% each time.
Regarding `Cc1ccc(COCC(F)(F)F)c(N2C(=O)CS/C2=N\C(=O)Nc2ccc(-c3cn(-c4ccc(C(F)(F)F)cc4)cn3)cc2)c1` [Compound J516, (Z)-1-(3-(5-Methyl-2-((2,2,2-trifluoroethoxy)methyl)phenyl)-4-oxothiazolidin-2-ylidene)-3-(4-(1-(4-(trifluoromethyl)phenyl)-1H-imidazol-4-yl)phenyl)urea], the pest or weed control at 50 µg/cm2 in test [1] and in test [2] was 50 to 100% throughout.
As to `Cc1ccc(OCCC(F)(F)F)c(N2C(=O)CS/C2=N\C(=O)Nc2ccc(-c3cn(-c4ccc(C(F)(F)F)cc4)cn3)cc2)c1` [Compound J517, (Z)-1-(3-(5-Methyl-2-(3,3,3-trifluoropropoxy)phenyl)-4-oxothiazolidin-2-ylidene)-3-(4-(1-(4-(trifluoromethyl)phenyl)-1H-imidazol-4-yl)phenyl)urea], the pest or weed control at 50 µg/cm2 in test [1] and in test [2] was 50 to 100% throughout.
For `COC(C)c1ccc(C)cc1N1C(=O)CS/C1=N\C(=O)Nc1ccc(-c2cn(-c3ccc(C(F)(F)F)cn3)cn2)cc1` (stereo not drawn) [Compound J518, (Z)-1-(3-(2-(1-Methoxyethyl)-5-methylphenyl)-4-oxothiazolidin-2-ylidene)-3-(4-(1-(5-(trifluoromethyl)pyridin-2-yl)-1H-imidazol-4-yl)phenyl)urea], the pest or weed control at 50 µg/cm2 in test [1] and in test [2] was 50 to 100% each time.
For `Cc1ccc(C(C)C)c(N2C(=O)CS/C2=N\C(=O)Nc2ccc(-c3cn(-c4ccc(C(F)(F)F)cn4)cn3)cc2)c1` [Compound J519, (Z)-1-(3-(2-Isopropyl-5-methylphenyl)-4-oxothiazolidin-2-ylidene)-3-(4-(1-(5-(trifluoromethyl)pyridin-2-yl)-1H-imidazol-4-yl)phenyl)urea], the pest or weed control at 50 µg/cm2 in test [1] and in test [2] was 50 to 100% in each case.
For `CC(C)c1ccc(N(C)C)cc1N1C(=O)CS/C1=N\C(=O)Nc1ccc(-c2cn(-c3ccc(C(F)(F)F)cn3)cn2)cc1` [Compound J520, (Z)-1-(3-(5-(Dimethylamino)-2-isopropylphenyl)-4-oxothiazolidin-2-ylidene)-3-(4-(1-(5-(trifluoromethyl)pyridin-2-yl)-1H-imidazol-4-yl)phenyl)urea], the pest or weed control at 50 µg/cm2 in test [1] and in test [2] was 50 to 100% throughout.
In the case of `Cc1ccc(COCC(F)(F)F)c(N2C(=O)CS/C2=N\C(=O)Nc2ccc(-c3cn(-c4ccc(C(F)(F)F)cn4)cn3)cc2)c1` [Compound J521, (Z)-1-(3-(5-Methyl-2-((2,2,2-trifluoroethoxy)methyl)phenyl)-4-oxothiazolidin-2-ylidene)-3-(4-(1-(5-(trifluoromethyl)pyridin-2-yl)-1H-imidazol-4-yl)phenyl)urea], the pest or weed control at 50 µg/cm2 in test [1] and in test [2] was 50 to 100% throughout.
Consider `Cc1ccc(OCCC(F)(F)F)c(N2C(=O)CS/C2=N\C(=O)Nc2ccc(-c3cn(-c4ccc(C(F)(F)F)cn4)cn3)cc2)c1` [Compound J522, (Z)-1-(3-(5-Methyl-2-(3,3,3-trifluoropropoxy)phenyl)-4-oxothiazolidin-2-ylidene)-3-(4-(1-(5-(trifluoromethyl)pyridin-2-yl)-1H-imidazol-4-yl)phenyl)urea], for which the pest or weed control at 50 µg/cm2 in test [1] and in test [2] was 50 to 100% each time.
Turning to `Cc1ccc(C(C)C)c(N2C(=O)CS/C2=N\C(=O)Nc2ccc(-c3cn(-c4ccc(C(F)(F)F)cc4)cn3)cc2C)c1` [Compound J523, (Z)-1-(3-(2-Isopropyl-5-methylphenyl)-4-oxothiazolidin-2-ylidene)-3-(2-methyl-4-(1-(4-(trifluoromethyl)phenyl)-1H-imidazol-4-yl)phenyl)urea], the pest or weed control at 50 µg/cm2 in test [1] and in test [2] was 50 to 100% in each case.
With `Cc1cc(-c2cn(-c3ccc(C(F)(F)F)cc3)cn2)ccc1NC(=O)/N=C1\SCC(=O)N1c1cc(N(C)C)ccc1C(C)C` [Compound J524, (Z)-1-(3-(5-(Dimethylamino)-2-isopropylphenyl)-4-oxothiazolidin-2-ylidene)-3-(2-methyl-4-(1-(4-(trifluoromethyl)phenyl)-1H-imidazol-4-yl)phenyl)urea], the pest or weed control at 50 µg/cm2 in test [1] and in test [2] was 50 to 100% throughout.

These data come from patent US20230077362A1 (CORTEVA AGRISCIENCE LLC, priority 2019, published 2023).
